Experimental data reported in patent US8304416B2, “Chromenone derivatives” (Merck Patent GmbH, priority 2003, dated 2012).

How the values were obtained:
Type in all cases: biochemical
RAF = test: Inhibition of RAF
Tie2 = Tie2 (Homo sapiens, UniProt Q02763); test: Inhibition of Tie2
PKB = PKB (Homo sapiens, UniProt P31749); test: Inhibition of PKB
PKB, sequence (P31749 whole entry, species assumed): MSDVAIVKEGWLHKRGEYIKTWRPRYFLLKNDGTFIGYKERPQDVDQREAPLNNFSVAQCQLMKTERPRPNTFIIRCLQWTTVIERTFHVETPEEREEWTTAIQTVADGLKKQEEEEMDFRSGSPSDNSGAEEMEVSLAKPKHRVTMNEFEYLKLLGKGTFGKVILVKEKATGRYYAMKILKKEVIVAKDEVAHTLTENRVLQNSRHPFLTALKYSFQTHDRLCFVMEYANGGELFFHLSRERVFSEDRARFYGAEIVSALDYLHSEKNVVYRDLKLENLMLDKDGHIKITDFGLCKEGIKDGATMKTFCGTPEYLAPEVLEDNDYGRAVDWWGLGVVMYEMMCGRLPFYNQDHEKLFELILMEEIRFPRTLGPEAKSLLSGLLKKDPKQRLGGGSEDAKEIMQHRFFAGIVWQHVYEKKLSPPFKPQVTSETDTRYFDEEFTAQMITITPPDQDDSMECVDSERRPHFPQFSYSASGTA

Tie2, sequence (Q02763 23-1124, species assumed): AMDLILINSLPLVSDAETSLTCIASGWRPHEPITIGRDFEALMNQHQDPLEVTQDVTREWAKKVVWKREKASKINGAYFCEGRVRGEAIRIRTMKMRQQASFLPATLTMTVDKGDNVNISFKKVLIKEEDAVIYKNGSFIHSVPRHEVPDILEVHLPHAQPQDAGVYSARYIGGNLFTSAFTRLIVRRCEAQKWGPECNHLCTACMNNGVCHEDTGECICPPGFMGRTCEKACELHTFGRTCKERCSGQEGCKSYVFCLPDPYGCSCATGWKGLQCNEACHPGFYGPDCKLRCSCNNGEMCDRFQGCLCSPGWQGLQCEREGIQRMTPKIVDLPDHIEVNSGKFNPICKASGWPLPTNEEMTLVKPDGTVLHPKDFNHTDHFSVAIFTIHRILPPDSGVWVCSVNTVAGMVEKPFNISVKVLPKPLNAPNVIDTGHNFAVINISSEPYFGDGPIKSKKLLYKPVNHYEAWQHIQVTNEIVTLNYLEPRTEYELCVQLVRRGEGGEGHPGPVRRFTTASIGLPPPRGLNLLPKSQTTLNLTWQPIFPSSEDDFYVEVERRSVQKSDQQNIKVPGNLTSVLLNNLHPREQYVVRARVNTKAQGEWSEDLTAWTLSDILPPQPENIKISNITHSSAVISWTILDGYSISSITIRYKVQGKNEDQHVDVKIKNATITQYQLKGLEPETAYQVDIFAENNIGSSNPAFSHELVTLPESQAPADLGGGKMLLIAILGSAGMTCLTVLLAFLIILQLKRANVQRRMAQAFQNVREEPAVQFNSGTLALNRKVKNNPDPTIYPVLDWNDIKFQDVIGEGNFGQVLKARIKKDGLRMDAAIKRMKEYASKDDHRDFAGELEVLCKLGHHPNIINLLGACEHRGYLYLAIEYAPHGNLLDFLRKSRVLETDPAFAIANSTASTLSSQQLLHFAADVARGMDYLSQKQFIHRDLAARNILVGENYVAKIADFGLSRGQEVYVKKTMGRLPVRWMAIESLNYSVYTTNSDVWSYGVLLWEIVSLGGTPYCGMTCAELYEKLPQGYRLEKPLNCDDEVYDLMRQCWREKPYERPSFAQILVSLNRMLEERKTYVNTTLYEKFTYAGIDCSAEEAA

IC50 (RAF) [nM]	IC50 (Tie2) [µM]	IC50 (PKB) [µM]	Structure (SMILES)
> 1000	> 10	> 10	Cn1ccnc1C(=O)c1cc(=O)c2c(O)cc(O)cc2o1
> 1000	> 10	> 10	Cn1ccnc1C(=O)c1cc(=O)c2cc(O)ccc2o1
> 1000	> 10	> 10	O=C(c1ccccn1)c1cc(=O)c2cc(O)ccc2o1

More lines, now with the values behind:

Structure (SMILES)	IC50 (RAF) [nM]	IC50 (Tie2) [µM]	IC50 (PKB) [µM]
O=C(c1cc(=O)c2cc(O)ccc2o1)c1ncc(Cl)nc1Cl	> 1000	> 10	9.4
O=C(c1ccccn1)c1cc(=O)c2c(O)cc(O)cc2o1	> 1000	> 10	> 10
O=C(c1cc(=O)c2cc(O)ccc2o1)c1nc2ccccc2s1	> 1000	> 10	> 10
